In US20260108546A1 (ELI LILLY AND COMPANY, priority 2024, published 2026) one finds Emax and EC50 data, which are given here for 13 molecules.

The experiment concerns the target T1, hGIP-R (Homo sapiens, UniProt P48546).
T1 construct: expressed in transfected cells; host or cells: HEK-293 clonal cell lines
T1 sequence (P48546 22-466): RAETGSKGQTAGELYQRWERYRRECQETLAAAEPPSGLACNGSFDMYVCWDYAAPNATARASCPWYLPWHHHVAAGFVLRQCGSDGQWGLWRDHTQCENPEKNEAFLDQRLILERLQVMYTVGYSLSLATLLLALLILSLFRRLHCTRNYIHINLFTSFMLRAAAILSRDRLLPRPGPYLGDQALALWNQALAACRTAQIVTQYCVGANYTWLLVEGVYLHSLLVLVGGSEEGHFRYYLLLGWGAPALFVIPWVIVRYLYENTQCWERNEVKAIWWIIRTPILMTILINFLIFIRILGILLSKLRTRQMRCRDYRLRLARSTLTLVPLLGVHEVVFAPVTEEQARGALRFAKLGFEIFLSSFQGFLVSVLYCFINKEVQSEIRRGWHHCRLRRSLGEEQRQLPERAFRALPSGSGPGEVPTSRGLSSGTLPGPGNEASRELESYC
Description: Functional hGIP-R Assay (cAMP formation, HTRF). The class given is cell-based. The settings on record: for Emax: cAMP efficacy, percent of maximal response to GIP(1-42)OH, 37° C., 0.1% bovine casein, arithmetic mean ± SEM; for EC50: cAMP potency, HEK-293 cells expressing hGIP-R, incubated at 37° C. in the presence of 0.1% bovine casein, geometric mean, read-out: Human GIP-R EC50, nM (SEM, n). Summed up: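 Relative EC50 and Emax came from four-parameter logistic fits of cAMP as a percent of the human GIP (1-42) OH maximal response. The cAMP was measured by competitive HTRF after 30 min, 37 °C compound exposure of hGIP-R HEK-293 clones in IBMX (250 μM)-containing medium.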
In general terms: Changes in cAMP serve as a functional read-out for many G protein-coupled receptors.

In the case of `Cn1cc2cc(-c3ccc([C@H]4C[C@@]45CCN([C@H](Cc4cnn(C(F)F)c4)C(=O)NC(C)(C)Cn4nc(C(F)(F)F)cc4-c4ccc(OC(F)F)nn4)C5=O)cc3)cnc2n1` [Example 121, (R)-N-(1-(5-(6-(Difluoromethoxy)pyridazin-3-yl)-3-(trifluoromethyl)-1H-pyrazol-1-yl)-2-methylpropan-2-yl)-3-(1-(difluoromethyl)-1H-pyrazol-4-yl)-2-((1R,3R)-1-(4-(2-methyl-2H-pyrazolo[3,4-b]pyridin-5-yl)phenyl)-4-oxo-5-azaspiro[2.4]heptan-5-yl)propanamide], the Emax – broadly, the size of the effect at its maximum, as opposed to the concentration needed – came to 74.6 ± 1.47% and the concentration for a half-maximal effect (EC50) – broadly, the midpoint of the concentration-response curve – was found to be 107 nM.

Regarding `Cc1nc(C2CC2)nc(O)c1-c1cc(C(F)(F)F)nn1CC(C)(C)NC(=O)[C@@H](Cc1cnn(C(F)F)c1)N1CC[C@@]2(C[C@@H]2c2ccc(-c3cnc4nn(C)cc4c3)cc2)C1=O` [Example 122, (R)-N-(1-(5-(2-Cyclopropyl-4-hydroxy-6-methylpyrimidin-5-yl)-3-(trifluoromethyl)-1H-pyrazol-1-yl)-2-methylpropan-2-yl)-3-(1-(difluoromethyl)-1H-pyrazol-4-yl)-2-((1R,3R)-1-(4-(2-methyl-2H-pyrazolo[3,4-b]pyridin-5-yl)phenyl)-4-oxo-5-azaspiro[2.4]heptan-5-yl)propanamide], the Emax came to 90.8 ± 7.25% and the EC50 is 103 nM.

Regarding `Cn1cc2cc(-c3ccc([C@H]4C[C@@]45CCN([C@H](Cc4cnn(C(F)F)c4)C(=O)NC(C)(C)Cn4nc(C(F)(F)F)cc4-c4cccn(CC#N)c4=O)C5=O)cc3)cnc2n1` [Example 123, (R)-N-(1-(5-(1-(Cyanomethyl)-2-oxo-1,2-dihydropyridin-3-yl)-3-(trifluoromethyl)-1H-pyrazol-1-yl)-2-methylpropan-2-yl)-3-(1-(difluoromethyl)-1H-pyrazol-4-yl)-2-((1R,3R)-1-(4-(2-methyl-2H-pyrazolo[3,4-b]pyridin-5-yl)phenyl)-4-oxo-5-azaspiro[2.4]heptan-5-yl)propanamide], the Emax stood at 95.7 ± 6.9% and the EC50 amounted to 18.7 nM.

Turning to `Cn1cc2cc(-c3ccc([C@H]4C[C@@]45CCN([C@H](Cc4cnn(C(F)F)c4)C(=O)NC(C)(C)Cn4nc(C(F)(F)F)cc4-c4cc(F)c(CO)cc4F)C5=O)cc3)cnc2n1` [Example 124, (R)-N-(1-(5-(2,5-Difluoro-4-(hydroxymethyl)phenyl)-3-(trifluoromethyl)-1H-pyrazol-1-yl)-2-methylpropan-2-yl)-3-(1-(difluoromethyl)-1H-pyrazol-4-yl)-2-((1R,3R)-1-(4-(2-methyl-2H-pyrazolo[3,4-b]pyridin-5-yl)phenyl)-4-oxo-5-azaspiro[2.4]heptan-5-yl)propanamide], the Emax was found to be 56.9 ± 11.2% and the EC50 was found to be 55.6 nM.

In the case of `Cn1cc2cc(-c3ccc([C@H]4C[C@@]45CCN([C@H](Cc4cnn(C(F)F)c4)C(=O)NC(C)(C)Cn4nc(C(F)(F)F)cc4-c4ccc(=O)n(CC(F)(F)F)c4)C5=O)cc3)cnc2n1` [Example 125, (R)-3-(1-(Difluoromethyl)-1H-pyrazol-4-yl)-N-(2-methyl-1-(5-(6-oxo-1-(2,2,2-trifluoroethyl)-1,6-dihydropyridin-3-yl)-3-(trifluoromethyl)-1H-pyrazol-1-yl)propan-2-yl)-2-((1R,3R)-1-(4-(2-methyl-2H-pyrazolo[3,4-b]pyridin-5-yl)phenyl)-4-oxo-5-azaspiro[2.4]heptan-5-yl)propanamide], the Emax came out at 68.5 ± 6.59% and the EC50 was 38.5 nM.

Consider `Cn1cc2cc(-c3ccc([C@H]4C[C@@]45CCN([C@H](Cc4cnn(C(F)F)c4)C(=O)NC(C)(C)Cn4nc(C(F)(F)F)cc4-c4cccn(CC(N)=O)c4=O)C5=O)cc3)cnc2n1` [Example 126, (R)-N-(1-(5-(1-(2-Amino-2-oxoethyl)-2-oxo-1,2-dihydropyridin-3-yl)-3-(trifluoromethyl)-1H-pyrazol-1-yl)-2-methylpropan-2-yl)-3-(1-(difluoromethyl)-1H-pyrazol-4-yl)-2-((1R,3R)-1-(4-(2-methyl-2H-pyrazolo[3,4-b]pyridin-5-yl)phenyl)-4-oxo-5-azaspiro[2.4]heptan-5-yl)propanamide], for which the Emax came out at 93.6 ± 1.06% and the EC50 was 42.3 nM.

With `CNC(=O)Cn1cc(-c2cc(C(F)(F)F)nn2CC(C)(C)NC(=O)[C@@H](Cc2cnn(C(F)F)c2)N2CC[C@@]3(C[C@@H]3c3ccc(-c4cnc5nn(C)cc5c4)cc3)C2=O)cn1` [Example 127, (R)-3-(1-(Difluoromethyl)-1H-pyrazol-4-yl)-N-(2-methyl-1-(1′-(2-(methylamino)-2-oxoethyl)-5-(trifluoromethyl)-1′H,2H-[3,4′-bipyrazol]-2-yl)propan-2-yl)-2-((1R,3R)-1-(4-(2-methyl-2H-pyrazolo[3,4-b]pyridin-5-yl)phenyl)-4-oxo-5-azaspiro[2.4]heptan-5-yl)propanamide], the Emax is 56.1 ± 4.15% and the EC50 turned out to be 60.1 nM.

For `Cc1c(-c2cc(C(F)(F)F)nn2CC(C)(C)NC(=O)[C@@H](Cc2cnn(C(F)F)c2)N2CC[C@@]3(C[C@@H]3c3ccc(-c4cnc5nn(C)cc5c4)cc3)C2=O)cn(C)c(=O)c1C#N` [Example 128, (R)-N-(1-(5-(5-Cyano-1,4-dimethyl-6-oxo-1,6-dihydropyridin-3-yl)-3-(trifluoromethyl)-1H-pyrazol-1-yl)-2-methylpropan-2-yl)-3-(1-(difluoromethyl)-1H-pyrazol-4-yl)-2-((1R,3R)-1-(4-(2-methyl-2H-pyrazolo[3,4-b]pyridin-5-yl)phenyl)-4-oxo-5-azaspiro[2.4]heptan-5-yl)propanamide], the Emax was 85.2 ± 1.24% and the EC50 came to 163 nM.

Take `Cn1cc2cc(-c3ccc([C@H]4C[C@@]45CCN([C@H](Cc4cnn(C(F)F)c4)C(=O)NC(C)(C)Cn4nc(C(F)(F)F)cc4-c4cn(C)c(=O)c6ccccc46)C5=O)cc3)cnc2n1` [Example 129, (R)-3-(1-(Difluoromethyl)-1H-pyrazol-4-yl)-N-(2-methyl-1-(5-(2-methyl-1-oxo-1,2-dihydroisoquinolin-4-yl)-3-(trifluoromethyl)-1H-pyrazol-1-yl)propan-2-yl)-2-((1R,3R)-1-(4-(2-methyl-2H-pyrazolo[3,4-b]pyridin-5-yl)phenyl)-4-oxo-5-azaspiro[2.4]heptan-5-yl)propanamide]: the maximum response (Emax) came out at 78.6 ± 6.28% and the EC50 came out at 138 nM.

For the molecule `Cn1cc2cc(-c3ccc([C@H]4C[C@@]45CCN([C@H](Cc4cnn(C(F)F)c4)C(=O)NC(C)(C)Cn4nc(C(F)(F)F)cc4-c4cc(C(F)(F)F)c(=O)n(C)c4)C5=O)cc3)cnc2n1` [Example 130, (R)-3-(1-(Difluoromethyl)-1H-pyrazol-4-yl)-N-(2-methyl-1-(5-(1-methyl-6-oxo-5-(trifluoromethyl)-1,6-dihydropyridin-3-yl)-3-(trifluoromethyl)-1H-pyrazol-1-yl)propan-2-yl)-2-((1R,3R)-1-(4-(2-methyl-2H-pyrazolo[3,4-b]pyridin-5-yl)phenyl)-4-oxo-5-azaspiro[2.4]heptan-5-yl)propanamide], the Emax amounted to 74.9 ± 11.6% and the EC50 was 104 nM.

For `Cn1cc2cc(-c3ccc([C@H]4C[C@@]45CCN([C@H](Cc4cnn(C(F)F)c4)C(=O)NC(C)(C)Cn4nc(C(F)(F)F)cc4-c4cc(F)c6nccn6c4)C5=O)cc3)cnc2n1` [Example 131, (R)-3-(1-(Difluoromethyl)-1H-pyrazol-4-yl)-N-(1-(5-(8-fluoroimidazo[1,2-a]pyridin-6-yl)-3-(trifluoromethyl)-1H-pyrazol-1-yl)-2-methylpropan-2-yl)-2-((1R,3R)-1-(4-(2-methyl-2H-pyrazolo[3,4-b]pyridin-5-yl)phenyl)-4-oxo-5-azaspiro[2.4]heptan-5-yl)propanamide], the Emax stood at 57.9 ± 4.24% and the EC50 stood at 17.7 nM.

`Cn1cc2cc(-c3ccc([C@H]4C[C@@]45CCN([C@H](Cc4cnn(C(F)F)c4)C(=O)NC(C)(C)Cn4nc(C(F)(F)F)cc4-c4ccc(C(N)=O)[nH]c4=O)C5=O)cc3)cnc2n1` [Example 132, 5-(1-(2-((R)-3-(1-(Difluoromethyl)-1H-pyrazol-4-yl)-2-((1R,3R)-1-(4-(2-methyl-2H-pyrazolo[3,4-b]pyridin-5-yl)phenyl)-4-oxo-5-azaspiro[2.4]heptan-5-yl)propanamido)-2-methylpropyl)-3-(trifluoromethyl)-1H-pyrazol-5-yl)-6-oxo-1,6-dihydropyridine-2-carboxamide]: the Emax is 93.3 ± 0.0968% and the EC50 was 20.3 nM.

On to `Cn1cc2cc(-c3ccc([C@H]4C[C@@]45CCN([C@H](Cc4cnn(C(F)F)c4)C(=O)NC(C)(C)Cn4nc(C(F)(F)F)cc4-c4cn(C)c(=O)c6ccnn46)C5=O)cc3)cnc2n1` [Example 133, (R)-3-(1-(Difluoromethyl)-1H-pyrazol-4-yl)-N-(2-methyl-1-(5-(5-methyl-4-oxo-4,5-dihydropyrazolo[1,5-a]pyrazin-7-yl)-3-(trifluoromethyl)-1H-pyrazol-1-yl)propan-2-yl)-2-((1R,3R)-1-(4-(2-methyl-2H-pyrazolo[3,4-b]pyridin-5-yl)phenyl)-4-oxo-5-azaspiro[2.4]heptan-5-yl)propanamide], for which the Emax was found to be 78.4 ± 3.18% and the EC50 worked out at 13.7 nM.
